Assay results reported in PMC6478823, “A suite of phenotypic assays to ensure pipeline diversity when prioritizing drug-like Cryptosporidium growth inhibitors” (Nature Communications, 2019).
Values joined by “and” are separate entries in the source; they are usually repeats but may differ in a detail not shown here. Identical values can stand only once.

How the values were obtained:
C. parvum = test: DNA replication assay (EdU incorporation); assay type: cell-based, Cryptosporidium parvum; details: compound at EC90; for DNA Synthesis Assay: Mean % Inhibition of EdU-labeling (normalized to parasite numbers), Average: average of replicates; for DNA Synthesis Assay: Mean % Inhibition of EdU-labeling (normalized to parasite numbers), Replicate 1: single replicate 1; for DNA Synthesis Assay: Mean % Inhibition of EdU-labeling (normalized to parasite numbers), Replicate 2: single replicate 2; for DNA Synthesis Assay: Mean % Inhibition of EdU-labeling (normalized to parasite numbers), Replicate 3: single replicate 3; for DNA Synthesis Assay: Mean % Inhibition of EdU-labeling (normalized to parasite numbers), Replicate 4: single replicate 4; for DNA synthesis: yes/no grouping by phenotypic assay result
Description: Following cell invasion, Cryptosporidium trophozoites grow and multiply to give rise to multinucleated type I meronts (Fig. 3a). The thymidine analog 5-ethynyl-2′-deoxyuridine (EdU) is efficiently incorporated into newly synthesized DNA, and can be detected using click chemistry. We used EdU to measure parasite intracellular DNA replication, as a surrogate for the more complex phenotype of intracellular growth and division. The approach for differentially labeling newly synthesized parasite DNA compared to host cell DNA was to take advantage of the fact that C. parvum replicates more quickly than the nearly confluent host cells. Thus, by adding EdU shortly before egress, it was possible to preferentially label replicating parasites (Fig. 3b, c). DNA staining with Hoechst labeled all of the host and parasite DNA, making it challenging to visualize and quantify parasite DNA. A simple DNA stain would also not distinguish pre-existing DNA from newly synthesized DNA (Fig. 3c). In contrast, EdU labeling only occurred with incorporation into newly synthesized DNA. Incorporated EdU was then easily stained for immunofluorescence and labeled parasites were quantified using high-content microscopy and an NIH ImageJ macro (Fig. 3c, DMSO condition). The […] hydroxyurea (10 mM), a known inhibitor of DNA replication, was used as a positive control for assay validation. […] Compounds with activity in this assay cannot be concluded to specifically target DNA replication, which is a complex phenotype.
Confluent HCT-8 cell monolayers in glass bottom plates were infected with C. parvum, and compounds were added at EC90 following invasion. At 9 h post-infection, 10 µM EdU was added, followed by incubation for another 2 h, and then washing, fixing, and staining for microscopy. […] 40 × dry objective (NA = 0.7); scale = 5 µm. Arrows indicate selected parasites with EdU-labeled DNA. d Quantification of EdU incorporation. […] Data are mean and SD of 2–5 biological replicates.
After incubation of cells with EdU for 2 h, cells were washed 3 times with PBS-D-gal and then fixed with PBS containing 4% PFA. Cells were then permeabilized and stained for EdU using the Click-iT® assay kit (Thermo Fisher Scientific, catalog# C10340) as per the manufacturer’s instructions. Cells were then imaged by focusing on parasites (note that the host cell nuclei are in a different focal plane) using a 40 × dry objective (0.7 NA) and EdU, and lectin numbers quantified using ImageJ software and the custom macro in Supplementary Method 1.

[1] = system: C. parvum DMC1 expression; test: Sexual differentiation assay (DMC1 expression); assay type: cell-based, Cryptosporidium parvum; details: for Asexual to sexual differentiation: Mean % DMC1 inhibition (normalized to host nuclei), Average: average of replicates; for Asexual to sexual differentiation: Mean % DMC1 inhibition (normalized to host nuclei), Replicate 1a: single replicate 1; for Asexual to sexual differentiation: Mean % DMC1 inhibition (normalized to host nuclei), Replicate 2a: single replicate 2; for 48 - 72 h DMC1 (asexual to sexual conversion): Mean % DMC1 inhibition (normalized to host nuclei): replicates 1-2
Description: We utilized DMC1 as a marker of C. parvum sexual development, and used the anti-DMC1 monoclonal antibody to develop a moderate-throughput high-content microscopy assay for characterizing anticryptosporidial compounds (Fig. 6a). […] Therefore, in order to enable numerical comparison of the ability of compounds to block sexual development with moderate throughput, we adopted a strategy of reporting the percent inhibition of DMC1 expression by the previously determined EC90 of each compound in the standard asexual development assay (Fig. 6c and Supplementary Table 2).
Fig. 6 Assay to measure asexual-to-sexual-stage conversion. a Schematic of the experimental approach. […] For b and c the mean and SD combined from at least two biological replicates with four technical replicates per experiment are shown. […] At given time points post-infection, infected cells were washed 3 times with PBS containing 111 mM of D-galactose, fixed for 15 min at room temperature with 4% paraformaldehyde in PBS, and permeabilized with 0.25% triton X-100 in PBS for 10 min at 37 °C. Cells were then washed 3 times with PBS and blocked at least overnight at 4 °C with 1% BSA in PBS (blocking buffer). Cells were stained with monoclonal antibody (1H10G7), either neat culture supernatant or 12.8 µg/mL of purified IgG in blocking buffer for 1 h at 37 °C, followed by 2 washes with PBS. Cells were then co-stained with a 1:500 dilution (4 µg/mL) of Alexa Fluor 568 goat anti-mouse IgG (Invitrogen, catalog# A-11004) and 1.33 µg/mL fluorescein-labeled Vicia villosa lectin (Vector Laboratories, catalog# FL-1231) diluted in blocking buffer for 1 h at 37 °C. Stains were then removed and 0.09 mM Hoechst 33258 (AnaSpec, catalog# AS-83219) also diluted in blocking buffer was added for another 15 min at 37 °C, followed by 2 PBS washes and imaging on a Nikon Eclipse Ti2000 epifluorescence microscope run with NIS-Elements Advanced Research software (Nikon, USA) and equipped with an EXi blue fluorescent microscopy camera (QImaging, Canada). For enumerating parasites, tiled 2 × 2 images with 15% overlapping edges were taken using a 40 × dry objective (0.7 NA), and for finer details, Z stack images were acquired using a 60 × oil objective (1.4 NA). Lectin positive cells in focus were first counted, followed by DMC1.
For compound dose-response studies, the same assay was performed in 384-well plates and imaged using a 20 × dry objective (NA = 0.45). Tiled 4 × 4 to 6 × 6 images were taken. Images were analyzed using ImageJ software and the custom macro provided in Supplementary Method 2.

[2] = compound at asexual EC90, 48-72 h

| SMILES | DNA Synthesis Assay: Mean % Inhibition of EdU-labeling (normalized to parasite numbers), Average (C. parvum) [%] | DNA Synthesis Assay: Mean % Inhibition of EdU-labeling (normalized to parasite numbers), Replicate 1 (C. parvum) [%] | DNA Synthesis Assay: Mean % Inhibition of EdU-labeling (normalized to parasite numbers), Replicate 2 (C. parvum) [%] | DNA Synthesis Assay: Mean % Inhibition of EdU-labeling (normalized to parasite numbers), Replicate 3 (C. parvum) [%] | DNA Synthesis Assay: Mean % Inhibition of EdU-labeling (normalized to parasite numbers), Replicate 4 (C. parvum) [%] | Asexual to sexual differentiation: Mean % DMC1 inhibition (normalized to host nuclei), Average [1, 2] [%] | Asexual to sexual differentiation: Mean % DMC1 inhibition (normalized to host nuclei), Replicate 1a [1, 2] [%] | Asexual to sexual differentiation: Mean % DMC1 inhibition (normalized to host nuclei), Replicate 2a [1, 2] [%] | DNA synthesis (C. parvum) | other results |
| --- | --- | --- | --- | --- | --- | --- | --- | --- | --- | --- |
| CN(C)C[C@H](O)Cn1c2ccc(Br)cc2c2cc(Br)ccc21 (racemic) [Wiskostatin] | 36.39 | 67.16 | 42.34 | 31.25 | 4.83 | 45.76 | 43.95 | 47.58 |  | effect on C. parvum DNA replication / EdU incorporation (C. parvum; result in words): active |
| Oc1c(C(Nc2ccccn2)c2cccc(Oc3ccccc3)c2)ccc2cccnc12 (centres unmarked) [A-2] | 100.00 | 100 | 100 |  |  | 36.33 | 56.25 | 16.42 | yes | DNA synthesis (mean % inhibition) (C. parvum; EdU added 9 h post-infection for 2 h): 100.00% |
| O=C(NC(c1ccccc1)c1ccc2cccnc2c1O)c1ccccc1 (centres unmarked) [A-5] | 99.95 | 100.00 | 100.00 | 99.80 | 100.00 | 65.35 | 63.04 | 67.67 | yes |  |
| Oc1c(CN2CCN(c3ccccc3F)CC2)cc(Br)c2cccnc12 [A-6] | 89.49 | 98.00 | 97.32 | 80.45 | 78.02 | 17.22 | 31.05 | 3.39 | yes | DNA Synthesis Assay: Mean % Inhibition of EdU-labeling (normalized to parasite numbers), Replicate 5 (C. parvum; single replicate 5): 93.68% |
| CCOc1ccc(Cl)c2c1B(O)OC2CN (centres unmarked) [AN6426] | 86.81 | 80.80 | 89.13 | 90.50 |  | 62.47 | 60.83 | 64.12 |  |  |
| CC(C)c1c(C(=O)Nc2ccccc2)c(-c2ccccc2)c(-c2ccc(F)cc2)n1CC[C@@H](O)C[C@@H](O)CC(=O)O [Atorvastatin] | -4.60 | -2.45 | -19.78 | 8.45 |  | 36.34 | 55.77 | 16.91 |  |  |
| c1ccc(CNc2nc(Nc3ccccc3)nc3ccccc23)cc1 [B-1] | -31.43 | -48.95 | -39.64 | -5.71 |  | 18.08 | 32.96 | -3.57 | no | 48 - 72 h DMC1 (asexual to sexual conversion): Mean % DMC1 inhibition (normalized to host nuclei) ([1]; B-1 at log[MMV006169] (µM) 0.22): -6.54% and 4.81%; 48 - 72 h DMC1 (asexual to sexual conversion): Mean % DMC1 inhibition (normalized to host nuclei) ([1]; B-1 at log[MMV006169] (µM) 0.52): -9.41% and 15.73%; 48 - 72 h DMC1 (asexual to sexual conversion): Mean % DMC1 inhibition (normalized to host nuclei) ([1]; B-1 at log[MMV006169] (µM) 0.70): -14.15% and 22.48%; 48 - 72 h DMC1 (asexual to sexual conversion): Mean % DMC1 inhibition (normalized to host nuclei) ([1]; B-1 at log[MMV006169] (µM) 1.00): 25.47% and 51.27%; 48 - 72 h DMC1 (asexual to sexual conversion): Mean % DMC1 inhibition (normalized to host nuclei) ([1]; B-1 at log[MMV006169] (µM) -0.25): 2.94% and -1.61%; 48 - 72 h DMC1 (asexual to sexual conversion): Mean % DMC1 inhibition (normalized to host nuclei) ([1]; B-1 at log[MMV006169] (µM) -0.73): 13.51% and -3.18%; 48 - 72 h DMC1 (asexual to sexual conversion): Mean % DMC1 inhibition (normalized to host nuclei) ([1]; B-1 at log[MMV006169] (µM) -1.21): 14.75% and -24.05%; 48 - 72 h DMC1 (asexual to sexual conversion): Mean % DMC1 inhibition (normalized to host nuclei) ([1]; B-1 at log[MMV006169] (µM) -1.69): 19.37% and -12.74%; 48 - 72 h DMC1 (asexual to sexual conversion): Mean % DMC1 inhibition (normalized to host nuclei) ([1]; B-1 at log[MMV006169] (µM) -2.16): 9.35% and -23.05%; activity in the DMC1 (sexual development) assay relative to asexual assay ([1]; compound added at 48 h, read at 72 h, result in words): less potent when used during the sexual phases of development; Asexual to sexual differentiation: Mean % DMC1 inhibition (normalized to host nuclei), Replicate 3a ([1]; compound at asexual EC90, 48-72 h, single replicate 3): 17.22%; Asexual to sexual differentiation: Mean % DMC1 inhibition (normalized to host nuclei), Replicate 4a ([1]; compound at asexual EC90, 48-72 h, single replicate 4): 25.70%; EC50 ([1]; inhibition of DMC1 expression from 48 to 72 h, range in brackets, read-out: 48 − 72 h DMC1 (asexual to sexual conversion): EC50): 11 µM |
